In ChEMBL document CHEMBL1150037, “Calcineurin has a very tight-binding pocket for the side chain of residue 4 of cyclosporin” (1994):

Experiments:
[1] = target: Peptidyl-prolyl cis-trans isomerase A (Rattus norvegicus) (UniProt P10111); assay: In vitro affinity towards cyclophilin A was determined under competitive ELISA systems using protein-conjugated ligand CsA
Mus musculus = species on record: Mus musculus; assay: Immunosuppressive activity by mouse mixed lymphocyte reaction (MLR_M) relative to cyclosporin as 1; type: functional
[2] = Immunosuppressive activity with the help of a reporter gene assay for IL-2 (IL2-RGA) relative to cyclosporin as 1; type: functional

Chain of Peptidyl-prolyl cis-trans isomerase A (Rattus norvegicus) (P10111 whole entry): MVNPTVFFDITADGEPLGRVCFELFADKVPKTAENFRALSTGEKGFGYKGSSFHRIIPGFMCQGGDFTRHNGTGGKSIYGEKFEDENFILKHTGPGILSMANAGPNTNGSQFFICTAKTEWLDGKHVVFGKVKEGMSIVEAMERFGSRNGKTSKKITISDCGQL

Row | Structure (SMILES) | Relative IC50 [1] | Relative IC50 (Mus musculus) | Relative IC50 [2]
1 | C/C=C/C[C@@H](C)[C@@H](O)[C@H]1C(=O)N[C@@H](CC)C(=O)N(C)CC(=O)N(C)[C@@H](CC(C)(C)O)C(=O)N[C@@H](C(C)C)C(=O)N(C)[C@@H](CC(C)C)C(=O)N[C@@H](C)C(=O)N[C@H](C)C(=O)N(C)[C@@H](CC(C)C)C(=O)N(C)[C@@H](CC(C)C)C(=O)N(C)[C@@H](C(C)C)C(=O)N1C | 0.9 | 130 | 110
2 | C/C=C/C[C@@H](C)[C@@H](O)[C@H]1C(=O)N[C@@H](CC)C(=O)N(C)CC(=O)N(C)[C@@H](CC)C(=O)N[C@@H](C(C)C)C(=O)N(C)[C@@H](CC(C)C)C(=O)N[C@@H](C)C(=O)N[C@H](C)C(=O)N(C)[C@@H](CC(C)C)C(=O)N(C)[C@@H](CC(C)C)C(=O)N(C)C(C(C)C)C(=O)N1C (single isomer, unassigned) | 1.2 | 65 | 163
3 | C=C(C)C[C@H]1C(=O)N[C@@H](C(C)C)C(=O)N(C)[C@@H](CC(C)C)C(=O)N[C@@H](C)C(=O)N[C@H](C)C(=O)N(C)[C@@H](CC(C)C)C(=O)N(C)[C@@H](CC(C)C)C(=O)N(C)C(C(C)C)C(=O)N(C)[C@@H]([C@H](O)[C@H](C)C/C=C/C)C(=O)N[C@@H](CC)C(=O)N(C)CC(=O)N1C (single isomer, unassigned) | 1.8 | 1.6 | 4
4 | C/C=C/C[C@@H](C)[C@@H](O)[C@H]1C(=O)N[C@@H](CC)C(=O)N(C)CC(=O)N(C)[C@@H](CC2CC2)C(=O)N[C@@H](C(C)C)C(=O)N(C)[C@@H](CC(C)C)C(=O)N[C@@H](C)C(=O)N[C@H](C)C(=O)N(C)[C@@H](CC(C)C)C(=O)N(C)[C@@H](CC(C)C)C(=O)N(C)C(C(C)C)C(=O)N1C (single isomer, unassigned) | 2.8 | 5 | 5.3
5 | C/C=C/C[C@@H](C)[C@@H](O)[C@H]1C(=O)N[C@@H](CC)C(=O)N(C)CC(=O)N(C)[C@@H](C(C)C)C(=O)N[C@@H](C(C)C)C(=O)N(C)[C@@H](CC(C)C)C(=O)N[C@@H](C)C(=O)N[C@H](C)C(=O)N(C)[C@@H](CC(C)C)C(=O)N(C)[C@@H](CC(C)C)C(=O)N(C)C(C(C)C)C(=O)N1C (single isomer, unassigned) | 0.5 | 130 | 2500
6 | C/C=C/C[C@@H](C)[C@@H](O)[C@H]1C(=O)N[C@@H](CC)C(=O)N(C)CC(=O)N(C)[C@@H](CC(C)(C)F)C(=O)N[C@@H](C(C)C)C(=O)N(C)[C@@H](CC(C)C)C(=O)N[C@@H](C)C(=O)N[C@H](C)C(=O)N(C)[C@@H](CC(C)C)C(=O)N(C)[C@@H](CC(C)C)C(=O)N(C)[C@@H](C(C)C)C(=O)N1C | 2.1 | 25 | 7
7 | C/C=C/C[C@@H](C)[C@@H](O)[C@H]1C(=O)N[C@@H](CC)C(=O)N(C)CC(=O)N(C)[C@@H](CCC(C)C)C(=O)N[C@@H](C(C)C)C(=O)N(C)[C@@H](CC(C)C)C(=O)N[C@@H](C)C(=O)N[C@H](C)C(=O)N(C)[C@@H](CC(C)C)C(=O)N(C)[C@@H](CC(C)C)C(=O)N(C)C(C(C)C)C(=O)N1C (single isomer, unassigned) | 1.9 | 3.5 | 9
